PubChem BioAssay AID1845211 (Molecular Pharmacology Branch, DTP, NCI, 2023)

System: NCI-H322M multicellular tumor spheroids, viability (% test/control)
Assay: Anticancer human tumor NCI-H322M cell line growth inhibition;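 on viability, T/C: spheroids exposed to compound for seven days before readout; 100% = DMSO vehicle control wells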
Settings: for IC50: curve of first compound; for viability, T/C: stronger effect = lower value
Procedure, shortened: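 Complex spheroids of malignant cells with endothelial cells and mesenchymal stem cells; agents alone or combined, from near clinical Cmax (or 10 microM if unknown) down in half-log steps, 0.25% DMSO final.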

Cn1ncnc1[C@H]1c2n[nH]c(=O)c3cc(F)cc(c23)N[C@@H]1c1ccc(F)cc1 + COc1cc2c(cc1O)CCNC21CSC2c3c(OC(C)=O)c(C)c4c(c3C(COC1=O)N1C(O)C3Cc5cc(C)c(OC)c(O)c5C(C21)N3C)OCO4
IC50 (second compound 30 pM): > 3 µM | IC50 (second compound 94.9 pM): > 3 µM | IC50 (second compound 0.0003 µM): > 3 µM | IC50 (second compound 0.000949 µM): 1.52 µM | IC50 (second compound 0.003 µM): < 0.00949 µM | viability, T/C (second compound 30 pM, first compound 0.00949 µM): 78.7% | viability, T/C (second compound 30 pM, first compound 0.03 µM): 89.2% | viability, T/C (second compound 30 pM, first compound 0.0949 µM): 68.8% | viability, T/C (second compound 30 pM, first compound 0.3 µM): 82% | viability, T/C (second compound 30 pM, first compound 0.949 µM): 75.2% | viability, T/C (second compound 30 pM, first compound 3 µM): 65.6% | viability, T/C (second compound 94.9 pM, first compound 0.00949 µM): 71.4% | viability, T/C (second compound 94.9 pM, first compound 0.03 µM): 78.2% | viability, T/C (second compound 94.9 pM, first compound 0.0949 µM): 78.8% | viability, T/C (second compound 94.9 pM, first compound 0.3 µM): 70.5% | viability, T/C (second compound 94.9 pM, first compound 0.949 µM): 68.2% | viability, T/C (second compound 94.9 pM, first compound 3 µM): 59.5% | viability, T/C (second compound 0.0003 µM, first compound 0.00949 µM): 88.8% | viability, T/C (second compound 0.0003 µM, first compound 0.03 µM): 85% | viability, T/C (second compound 0.0003 µM, first compound 0.0949 µM): 82.9% | viability, T/C (second compound 0.0003 µM, first compound 0.3 µM): 77.8% | viability, T/C (second compound 0.0003 µM, first compound 0.949 µM): 67.3% | viability, T/C (second compound 0.0003 µM, first compound 3 µM): 62.9% | viability, T/C (second compound 0.000949 µM, first compound 0.00949 µM): 73.6% | viability, T/C (second compound 0.000949 µM, first compound 0.03 µM): 68.6% | viability, T/C (second compound 0.000949 µM, first compound 0.0949 µM): 72.5% | viability, T/C (second compound 0.000949 µM, first compound 0.3 µM): 64.4% | viability, T/C (second compound 0.000949 µM, first compound 0.949 µM): 56.9% | viability, T/C (second compound 0.000949 µM, first compound 3 µM): 40.3% | viability, T/C (second compound 0.003 µM, first compound 0.00949 µM): 6.87% | viability, T/C (second compound 0.003 µM, first compound 0.03 µM): 9.48% | viability, T/C (second compound 0.003 µM, first compound 0.0949 µM): 6.81% | viability, T/C (second compound 0.003 µM, first compound 0.3 µM): 3.83% | viability, T/C (second compound 0.003 µM, first compound 0.949 µM): 10.6% | viability, T/C (second compound 0.003 µM, first compound 3 µM): 1.7%

Cc1sc2c(c1C)C(c1ccc(Cl)cc1)=NC(CC(=O)Nc1ccc(O)cc1)c1nnc(C)n1-2 (stereo not given) + Cn1nnc2c(C(N)=O)ncn2c1=O
IC50 (second compound 1 µM): > 3 µM | IC50 (second compound 3.16 µM): > 3 µM | IC50 (second compound 10 µM): > 3 µM | IC50 (second compound 31.6 µM): > 3 µM | IC50 (second compound 100 µM): > 3 µM | viability, T/C (second compound 1 µM, first compound 0.00949 µM): 109% | viability, T/C (second compound 1 µM, first compound 0.03 µM): 105% | viability, T/C (second compound 1 µM, first compound 0.0949 µM): 134% | viability, T/C (second compound 1 µM, first compound 0.3 µM): 114% | viability, T/C (second compound 1 µM, first compound 0.949 µM): 81.2% | viability, T/C (second compound 1 µM, first compound 3 µM): 80.3% | viability, T/C (second compound 3.16 µM, first compound 0.00949 µM): 104% | viability, T/C (second compound 3.16 µM, first compound 0.03 µM): 113% | viability, T/C (second compound 3.16 µM, first compound 0.0949 µM): 120% | viability, T/C (second compound 3.16 µM, first compound 0.3 µM): 103% | viability, T/C (second compound 3.16 µM, first compound 0.949 µM): 87.6% | viability, T/C (second compound 3.16 µM, first compound 3 µM): 73.5% | viability, T/C (second compound 10 µM, first compound 0.00949 µM): 107% | viability, T/C (second compound 10 µM, first compound 0.03 µM): 124% | viability, T/C (second compound 10 µM, first compound 0.0949 µM): 129% | viability, T/C (second compound 10 µM, first compound 0.3 µM): 113% | viability, T/C (second compound 10 µM, first compound 0.949 µM): 90.2% | viability, T/C (second compound 10 µM, first compound 3 µM): 74.5% | viability, T/C (second compound 31.6 µM, first compound 0.00949 µM): 111% | viability, T/C (second compound 31.6 µM, first compound 0.03 µM): 130% | viability, T/C (second compound 31.6 µM, first compound 0.0949 µM): 120% | viability, T/C (second compound 31.6 µM, first compound 0.3 µM): 115% | viability, T/C (second compound 31.6 µM, first compound 0.949 µM): 91.2% | viability, T/C (second compound 31.6 µM, first compound 3 µM): 71.9% | viability, T/C (second compound 100 µM, first compound 0.00949 µM): 116% | viability, T/C (second compound 100 µM, first compound 0.03 µM): 124% | viability, T/C (second compound 100 µM, first compound 0.0949 µM): 116% | viability, T/C (second compound 100 µM, first compound 0.3 µM): 111% | viability, T/C (second compound 100 µM, first compound 0.949 µM): 92.7% | viability, T/C (second compound 100 µM, first compound 3 µM): 82%
